# Measured values published in patent publication EP4772560A1, “POLYESTER RESIN COMPRISING REGENERATED BIS(2-HYDROXYETHYL)TEREPHTHALATE, AND ARTICLE COMPRISING POLYESTER RESIN” (SK Chemicals Co., Ltd., priority 2023, dated 2025).
# Test: Thermal property drop index (TDI) calculated from HPLC peak area fractions of recycled BHET
# Type: physicochemical
# Conditions: thermal property drop index = [DEG-ester-1] + [DEG-ester-2] × 2 + exp[HA-ester], from HPLC peak area fractions (%)
# Protocol: About 0.01 g of recycled bis(2-hydroxyethyl) terephthalate was diluted in about 20 ml of methanol, which was analyzed by high-performance liquid chromatography (HPLC) (model: Waters e2695, column: C18 (4.6 × 250 mm), 5 µm, UV detector: 242 nm, injection volume: 10 µl, eluent (gradient) A: H2O + H3PO4, B: acetonitrile) Thereafter, the peak area fractions (%) of the following components among the total peak area of HPLC were obtained. • MHET: monohydroxyethyl terephthalate • BHET: bis(2-hydroxyethyl) terephthalate, • DEG-ester-1: 2-hydroxyethyl[2-(2-hydroxyethoxy)ethyl] terephthalate • DEG-ester-2: bis[2-(2-hydroxyethoxy)ethyl]benzene-1,4-dicarboxylate • HA-ester: 2-hydroxyethyl(2-acetoxyethyl) terephthalate • Dimer: BHET dimer • Trimer: BHET trimer
# Recycled bis(2-hydroxyethyl) terephthalate was subjected to HPLC analysis in the same manner as in section (1) above. The thermal property drop index (TDI) defined by the following equation was then calculated. TDI = [DEG−ester−1] + [DEG−ester−2] × 2 + exp^(∧) [HA−ester] [formula]
# Here, DEG-ester-1 is the peak area fraction (%) of 2-hydroxyethyl[2-(2-hydroxyethoxy)ethyl] terephthalate, DEG-ester-2 is the peak area fraction (%) of bis[2-(2-hydroxyethoxy)ethyl]benzene-1,4-dicarboxylate, and HA-ester is the peak area fraction (%) of 2-hydroxyethyl(2-acetoxyethyl) terephthalate. It was calculated by taking only the numerical values excluding the units of these parameters.
structure (smiles),measurement,setting,value
"O=C(OCCO)c1ccc(C(=O)OCCO)cc1 [r-BHET A1, bis(2-hydroxyethyl) terephthalate]",TDI,listed as A1,1.71
"O=C(OCCO)c1ccc(C(=O)OCCO)cc1 [r-BHET A2, bis(2-hydroxyethyl) terephthalate]",TDI,listed as A2,1.59
"O=C(OCCO)c1ccc(C(=O)OCCO)cc1 [r-BHET A3, bis(2-hydroxyethyl) terephthalate]",TDI,listed as A3,1.74
"O=C(OCCO)c1ccc(C(=O)OCCO)cc1 [r-BHET A4, bis(2-hydroxyethyl) terephthalate]",TDI,listed as A4,1.86
"O=C(OCCO)c1ccc(C(=O)OCCO)cc1 [r-BHET A5, bis(2-hydroxyethyl) terephthalate]",TDI,listed as A5,2.55
"O=C(OCCO)c1ccc(C(=O)OCCO)cc1 [r-BHET A6, bis(2-hydroxyethyl) terephthalate]",TDI,listed as A6,1.86
"O=C(OCCO)c1ccc(C(=O)OCCO)cc1 [r-BHET A7, bis(2-hydroxyethyl) terephthalate]",TDI,listed as A7,1.71
"O=C(OCCO)c1ccc(C(=O)OCCO)cc1 [r-BHET B1, bis(2-hydroxyethyl) terephthalate, reference compound]",TDI,listed as B1,9.23
"O=C(OCCO)c1ccc(C(=O)OCCO)cc1 [r-BHET B2, bis(2-hydroxyethyl) terephthalate, reference compound]",TDI,listed as B2,6.87
